The subject of data set [1] is maximal electroshock. The experiment in a line: Maximal electroshock, rat p.o. The following applies: po. It is filed as in vivo. As for the experimental part:
(§1) Compounds according to the present invention were tested in vivo for their anticonvulsive action as shown in Table 1 in mice by i.p. administration, or in rats administered orally according to the internationally customary standard (Pharmac. Weekblad, Sc.Ed. 14 132 (1992) and Antiepileptic Drugs, Third Ed., Raven Press, New York 1989).
(§2) Analogous results were obtained for oral action.
(In general: Protection in the maximal electroshock model is a classic sign of anticonvulsant action.)

The subject of data set [2] is pentetrazol convulsion model. The experiment in a line: Pentetrazol convulsion model, rat p.o. It is filed as in vivo. The following applies: po. As for the experimental part: as §1, §2
The test system of data set [3] is neurotoxicity. The experiment in a line: Neurotoxicity, rat. It is filed as in vivo. The protocol: as §1, §2
The test system of data set [4] is maximal electroshock. The experiment in a line: Anticonvulsive action, maximal electroshock (MES), mouse i.p. Format: in vivo. Conditions: ip, read-out: Action, % of the protected animals. The protocol:
(§3) Compounds according to the present invention were tested in vivo for their anticonvulsive action as shown in Table 1 in mice by i.p. administration, or in rats administered orally according to the internationally customary standard (Pharmac. Weekblad, Sc.Ed. 14 132 (1992) and Antiepileptic Drugs, Third Ed., Raven Press, New York 1989). [table]

For data set [5], the system named is s.c. pentetrazole. The experiment in a line: Anticonvulsive action, s.c. pentetrazole (PTZ), mouse i.p. The following applies: ip, read-out: Action, % of the protected animals. Format: in vivo. The protocol: as §3
Data set [6] can be described thus: Octanol/water partition coefficient. It is filed as physicochemical. The following applies: read-out: log P (octanol/water partition coefficient).
The subject of data set [7] is Vogel Conflict Test. The experiment in a line: Vogel Conflict Test. It is filed as in vivo, rat. The source says:
In this model, continuous access to drinking water is withheld from rats for a certain time. After this period, free access is given to drinking water, but is coupled with a mild electrical stimulation. The conflict for the animals is between accepting the electrical stimulation or going without a drink.
The reactions to a conflict situation of this type are similar to the secondary phenomena of anxiety in man. The resulting avoidance reactions can be suppressed by anxiolytic substances. As a measure of the anxiolytic action, the number of tolerated current pulses of the animals treated with the test substance is assessed in comparison to the vehicle-treated control group.

Data set [8] concerns elevated maze test. The experiment in a line: Elevated maze test. It is filed as in vivo, mouse. The following applies: for Activity in % (length of stay in the open arms, control = 100): mouse, intraperitoneal. The source says:
In this model, mice are placed in an elevated passage system with open and closed arms as described by Pellow, S., Chopin, P., File S. E., Briley, M.: Validation of open: closed arm entries in an elevated plus-maze as a measure of anxiety in rats. J. of Neuroscience Methods 14: 149-167, 1985; Hogg, S.: A review of the validity and variability of the elevated plus-maze as an animal model of anxiety. Pharmacology Biochemistry and Behavior: 21-30, 1996. Untreated animals repeatedly try the closed passages. The inhibition of anxiety is measured by the length of stay in the open arms as a percentage of the total length of stay.

As usually defined, the ED50 is the dose that gives a 50% effect, or the effect in half of the subjects. For `O=C1C=C(N2CCOCC2)CN1c1ccc(Cl)cc1` [1-(4-chlorophenyl)-4-morpholin-4-yl-1,5-dihydropyrrol-2-one], the figures for the ED50 in [1] and in [2] were 19 mg/kg and 11 mg/kg, respectively. In data set [3], the NT50 neurotoxicity is listed as more than 500 mg/kg.

One may read the melting point as the temperature of the solid-liquid transition. Compound `O=C1C=C(N2CCOCC2)CN1c1ccc(OC(F)(F)F)cc1` [Compound 9, 4-morpholin-4-yl-1-(4-trifluoromethoxyphenyl)-1,5-dihydropyrrol-2-one] returned a melting point of 148 to 153 °C. Moreover, the responders at 100 mg/kg in [4] (dose 100 mg/kg) worked out at 100%. Also, the responders at 10 mg/kg in data set [5] (dose 10 mg/kg) was determined as 50%. In [6], the logP was determined as 2.45.

Consider `O=C1C=C(N2CCOCC2)CN1c1ccc(Cl)cc1` [Compound 4, 1-(4-chlorophenyl)-4-morpholin-4-yl-1,5-dihydropyrrol-2-one], for which the therapeutic index in [7] (Vogel Conflict Test) and in data set [8] (elevated maze test) was more than 50 each time. The “Changed number of impulses to the control in %” value in data set [7] (rat, 3 mg/kg p.o.) is given as 102%; in data set [7] (rat, 10 mg/kg p.o.), 174%. Besides, in data set [7] (rat, p.o.), the “dose from which an anxiolytic action was detected / equally effective dose” value is listed as 10 mg/kg. Further, the “proportionate length of stay in the open arms (in words)” value in [8] (intraperitoneal administration) was “significantly increased”. Further, the “Activity in % (length of stay in the open arms, control = 100)” value in data set [8] (1 mg/kg) is 128 (p < 0.05) %; in data set [8] (3 mg/kg), 110%; in data set [8] (10 mg/kg) it was 158 (p < 0.05) %; in [8] (30 mg/kg) it was 129%. For the same compound, the responders at 300 mg/kg in data set [4] (dose 300 mg/kg) stood at 0%. Further, in [5] (dose 30 mg/kg), the responders at 30 mg/kg came out at 100%. Besides, in [6], the logP amounted to 1.91.

Source of the values: patent publication US6500821B1, “4-amino-1-aryl-1,5-dihydropyrrol-2-ones and process for making” (Arzneimittelwerk Dresden GmbH, priority 1999, dated 2002).
